From patent publication US9629843B2, “MTOR modulators and uses thereof” (The Regents of the University of California, priority 2008, dated 2017)

Columns and labels:
[1] = target: T1, mTor (Homo sapiens, UniProt P42345); assay: Kinase inhibition assay, mTor; format: biochemical
T1 construct: Purified kinase domains (e.g. mTor, P110α, P110β, P110γ, P110δ, PI4Kβ, DNA-PK, PKCα, PKCβ1, PKCβII, RET, and JAK2)

[2] = target: T2, PI3K α (Homo sapiens, UniProt P42336); assay: Kinase inhibition assay, PI3K α; format: biochemical
T2 construct: Purified kinase domains (e.g. mTor, P110α, P110β, P110γ, P110δ, PI4Kβ, DNA-PK, PKCα, PKCβ1, PKCβII, RET, and JAK2)

[3] = target: T3, PI3K β (Homo sapiens, UniProt P42338); assay: Kinase inhibition assay, PI3K β; format: biochemical
T3 construct: Purified kinase domains (e.g. mTor, P110α, P110β, P110γ, P110δ, PI4Kβ, DNA-PK, PKCα, PKCβ1, PKCβII, RET, and JAK2)

[4] = target: T4, PI3K δ (Homo sapiens, UniProt O00329); assay: Kinase inhibition assay, PI3K δ; format: biochemical
T4 construct: Purified kinase domains (e.g. mTor, P110α, P110β, P110γ, P110δ, PI4Kβ, DNA-PK, PKCα, PKCβ1, PKCβII, RET, and JAK2)

[5] = test system: PC3 cells; assay: Inhibition of proliferation of PC3 cells; format: cell-based; settings: Homo sapiens, PC-3
[6] = target: T5, PKCα (Homo sapiens, UniProt P17252); assay: Kinase inhibition assay, PKCα; format: biochemical; settings: at about 1 μM or less
T5 construct: Purified kinase domains (e.g. mTor, P110α, P110β, P110γ, P110δ, PI4Kβ, DNA-PK, PKCα, PKCβ1, PKCβII, RET, and JAK2)

[7] = test system: Akt phosphorylation (S473, T308) in L6 myotubes; assay: Akt phosphorylation in insulin stimulated L6 myotubes (immunoblot); format: cell-based; settings: 100 nM insulin, FIG. 3
Experimental: L6 myoblasts were grown typically grown in DMEM supplemented with about 10% FBS, glutamine and penicillin/streptomycin. Confluent L6 myoblasts were differentiated into mytubes by culturing them for approximately 5 days in media containing about 2% FBS. L6 myotubes were maintained in media containing approximately 2% FBS until use.
In order to compare the effect of TORKinibs and PIK-90 on Akt phosphorylation, L6 myotubes were serum starved overnight and incubated with inhibitors or about 0.1% DMSO for approximately 30 minutes prior to stimulation with insulin (e.g. 100 nM) for about 10 minutes. Cells were lysed by scraping into ice cold lysis buffer (generally: 300 mM NaCl, 50 mM Tris pH 7.5, 5 mM EDTA, 1% TRITON™ X-100, 0.02% NaN3, 20 nM microcystin, Sigma phosphatase inhibitor cocktails 1 and 2, Roche protease inhibitor cocktail and 2 mM PMSF). After contacting cells with lysis buffer, the solution was briefly sonicated. Lysates were cleared by centrifugation, resolved by SDS-PAGE, transferred to nitrocellulose and immunoblotted using antibodies to phospho-Akt S473, phospho-Akt T308, Akt, and β-actin (Cell Signaling Technologies).

[8] = test system: S6K, S6, 4EBP1 phosphorylation in L6 myotubes; assay: Phosphorylation of S6K, S6 and 4EBP1 in insulin stimulated L6 myotubes; format: cell-based
[9] = test system: myristolated-Akt transgenic thymocytes tumors; assay: Akt murine allograft tumor model; format: in vivo, NOD/SCID mice; settings: after 20 days of treatment
[10] = test system: ENaC-dependent Na+ current; assay: ENaC-dependent Na+ transport in mpkCCD cells; settings: prolonged treatment (>24 h)
[11] = target: T6, PI3K γ (Homo sapiens, UniProt P48736); assay: Kinase inhibition assay, PI3K γ; format: biochemical
T6 construct: Purified kinase domains (e.g. mTor, P110α, P110β, P110γ, P110δ, PI4Kβ, DNA-PK, PKCα, PKCβ1, PKCβII, RET, and JAK2)

[12] = test system: Akt phosphorylation (S473, T308) in MEFs; assay: Akt phosphorylation in wild-type and SIN1−/− mouse embryonic fibroblasts (immunoblot); format: cell-based; settings: SIN1−/− MEFs
Experimental: Wild-type and SIN1−/− primary mouse embryonic fibroblasts (MEFs) were grown in DMEM supplemented with about 10% FBS, glutamine and penicillin/streptomycin. MEFs were treated with TORKinib at about 2.5, 0.63, and 0.16 uM; rapamycin at approximately 15 nM; or PIK-90 at 625 nM for 30 minutes prior to insulin stimulation (e.g. 100 nM) for 10 minutes. Cells were lysed by scraping into ice cold lysis buffer (typically 300 mM NaCl, 50 mM Tris pH 7.5, 5 mM EDTA, 1% TRITON™ X-100, 0.02% NaN3, 20 nM microcystin, Sigma phosphatase inhibitor cocktails 1 and 2, Roche protease inhibitor cocktail and 2 mM PMSF). After contacting cells with lysis buffer, the solution was briefly sonicated. Lysates were cleared by centrifugation, resolved by SDS-PAGE, transferred to nitrocellulose and immunoblotted using antibodies to phospho-Akt S473, phospho-Akt T308, Akt, and β-actin (Cell Signaling Technologies).

[13] = test system: Akt substrates (GSK3, TSC2, FoxO1/O3a) in L6 myotubes; assay: Phosphorylation of Akt substrates in insulin stimulated L6 myotubes; format: cell-based; settings: FIG. 6
[14] = test system: p190 leukemic cells; assay: Syngenic mouse leukemia transplant model (p190); format: in vivo, Balb/c mice; settings: for number of cycling leukemic blasts / apoptosis of leukemic blast cells: bone marrow and spleen; for number of cycling leukemic blasts: FIG. 23; for apoptosis of leukemic blast cells: FIG. 24
Experimental: The murine bone marrow infection/transplantation method was used to determine the effect of kinase inhibitors on disregulated cellular proliferation […]. The MSCV-p190-BCR-Abl-Ires-GFP (MIG-p190) or MSCV-p190-BCR-Abl-Ires-hCD4Δtail (MIC-p190) retroviral vectors were assembled in 293T cells and used to transduce bone marrow cells. The GFP and CD4Δtail markers allow quantitation by FACS analysis and/or enrichment by magnetic sorting of transduced cells.
These cells were administered together with a radioprotective dose of about 5×10^6 normal bone marrow cells from 3-5 week old donor Balb/c mice. […] Mice who became sick after about 14 days were euthanized and lymphoid organs were harvested for analysis. Kinase inhibitor treatment began about 10 days after leukemic cell injection and continued daily until the mice became sick or a maximum of approximately 35 days post-transplant. Inhibitors were given by oral lavage.
Peripheral blood cells were collected approximately on day 10 (pre-treatment) and upon euthanization (post treatment), contacted with labeled anti-hCD4 antibodies and counted by flow cytometry.
Mice were injected with the BrdU analogue EdU and sacrificed. Bone marrow and spleen were collected, blast cells were harvested from the tissue, and stained with antibodies to hCD4, and analyzed by flow cytomtery.
Bone marrow and spleen were collected, blast cells were harvested from the tissue, and stained with antibodies to hCD4, Annexin V, and 7AAD, and analyzed by flow cytometry. […] The results also show significant increase at the concentrations examined in induction of apoptosis at the concentrations examined of imatinib in combination with rapamycin or PI-103.

[15] = test system: cap-dependent translation; assay: Cap-dependent translation, m7GTP affinity, p190 cells; format: cell-based; settings: IM at 5 μM; FIG. 38D
[16] = test system: p190 transduced cells; assay: MTS viability assay of p190 transduced cells; format: cell-based, murine
[17] = test system: p190 transduced cells; assay: Combination with imatinib on p190 transduced cells (MTS, combination index); format: cell-based, murine
[18] = test system: CD19+ CD34+ B cell progenitors from Ph+ and Ph− patients; assay: Colony forming assay with human B-ALL cells; format: cell-based; settings: about 50 nM dasatinib; FIG. 18
[19] = test system: p190 BCR-Abl transformed bone marrow cells; assay: Colony forming assay with p190 BCR-Abl transformed murine bone marrow cells; format: cell-based; settings: compared to rapamycin; FIG. 17
[20] = test system: AML; assay: Colony assay using AML specimens; format: cell-based, Human; settings: expected
Experimental: Human Ph− B-ALL and AML specimens are obtained. Ph− B-ALL and AML are cytogenetically diverse, with diverse therapeutic regimens currently in use depending on patient risk factors. The majority of Ph− B-ALL patients are treated initially with a combination of three drugs: glucocorticoid (e.g. dexamethasone), vincristine, and asparaginase or anthracycline (e.g. daunorubicin). Most AML patients receive an anthracycline only. Pilot experiments with 3 patient samples are conducted to determine concentrations of vincristine (Ph− ALL) or daunorubicin (AML) that partially reduce colony formation in methylcellulose. It is expected that these drugs are effective in the range of 0.1-1 μM (vincristine) and 3-30 nM (daunorubicin). Optionally, the Ph-ALL assays may be supplemented with dexamethasone and/or daunorubicin.

[21] = test system: Ph− B-ALL; assay: Colony assay using Ph− B-ALL specimens; format: cell-based, Human; settings: expected

T3 sequence (P42338 772-1053 limits assumed): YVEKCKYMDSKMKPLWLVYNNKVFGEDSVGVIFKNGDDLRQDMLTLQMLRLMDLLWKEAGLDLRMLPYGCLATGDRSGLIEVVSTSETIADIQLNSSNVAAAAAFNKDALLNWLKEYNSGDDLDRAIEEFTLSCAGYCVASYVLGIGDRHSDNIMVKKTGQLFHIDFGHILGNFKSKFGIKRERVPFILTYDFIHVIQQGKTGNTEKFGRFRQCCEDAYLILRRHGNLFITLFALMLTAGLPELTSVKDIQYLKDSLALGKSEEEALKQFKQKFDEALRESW
T3 sequence (P27986 whole entry partner, the tested form may be a part): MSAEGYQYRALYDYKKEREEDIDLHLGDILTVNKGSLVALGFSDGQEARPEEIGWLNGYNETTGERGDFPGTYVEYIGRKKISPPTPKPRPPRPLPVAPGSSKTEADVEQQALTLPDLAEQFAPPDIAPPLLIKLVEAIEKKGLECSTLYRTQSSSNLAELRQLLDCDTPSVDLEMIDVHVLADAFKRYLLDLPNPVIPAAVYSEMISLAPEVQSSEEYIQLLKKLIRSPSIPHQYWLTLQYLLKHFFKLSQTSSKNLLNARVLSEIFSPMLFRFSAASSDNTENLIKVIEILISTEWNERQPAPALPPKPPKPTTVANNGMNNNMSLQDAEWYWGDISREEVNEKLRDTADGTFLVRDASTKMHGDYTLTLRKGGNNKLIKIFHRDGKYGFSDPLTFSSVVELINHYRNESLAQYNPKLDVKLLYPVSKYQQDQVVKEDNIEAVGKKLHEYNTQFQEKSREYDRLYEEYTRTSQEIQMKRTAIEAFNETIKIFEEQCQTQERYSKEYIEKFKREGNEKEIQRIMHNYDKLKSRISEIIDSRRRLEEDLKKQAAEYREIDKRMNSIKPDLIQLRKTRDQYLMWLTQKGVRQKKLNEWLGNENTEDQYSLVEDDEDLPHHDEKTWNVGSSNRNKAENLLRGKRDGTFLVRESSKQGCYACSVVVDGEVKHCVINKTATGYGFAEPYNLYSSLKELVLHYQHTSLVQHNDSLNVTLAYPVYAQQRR
T2 sequence (P42336 765-1051 limits assumed): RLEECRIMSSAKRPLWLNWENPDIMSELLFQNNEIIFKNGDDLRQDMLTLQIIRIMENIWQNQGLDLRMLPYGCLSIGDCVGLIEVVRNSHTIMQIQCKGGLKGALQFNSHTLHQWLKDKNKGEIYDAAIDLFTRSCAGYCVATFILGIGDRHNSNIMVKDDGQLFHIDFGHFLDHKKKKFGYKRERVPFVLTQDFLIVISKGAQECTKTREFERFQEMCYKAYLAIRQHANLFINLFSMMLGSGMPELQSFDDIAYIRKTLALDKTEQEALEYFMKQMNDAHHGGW
T2 sequence (P27986 whole entry partner, the tested form may be a part): as the sequence (P27986 whole entry partner, the tested form may be a part) above
T4 sequence (O00329 745-1027 limits assumed): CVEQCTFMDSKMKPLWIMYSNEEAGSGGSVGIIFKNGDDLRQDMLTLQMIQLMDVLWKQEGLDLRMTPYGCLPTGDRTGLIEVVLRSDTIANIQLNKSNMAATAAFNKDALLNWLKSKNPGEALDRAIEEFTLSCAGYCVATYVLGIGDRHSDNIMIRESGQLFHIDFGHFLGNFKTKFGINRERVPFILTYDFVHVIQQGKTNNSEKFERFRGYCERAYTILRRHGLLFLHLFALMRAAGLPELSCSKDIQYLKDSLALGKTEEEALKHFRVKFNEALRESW
T4 sequence (P27986 whole entry partner, the tested form may be a part): as the sequence (P27986 whole entry partner, the tested form may be a part) above
T1 sequence (P42345 2156-2469 limits assumed): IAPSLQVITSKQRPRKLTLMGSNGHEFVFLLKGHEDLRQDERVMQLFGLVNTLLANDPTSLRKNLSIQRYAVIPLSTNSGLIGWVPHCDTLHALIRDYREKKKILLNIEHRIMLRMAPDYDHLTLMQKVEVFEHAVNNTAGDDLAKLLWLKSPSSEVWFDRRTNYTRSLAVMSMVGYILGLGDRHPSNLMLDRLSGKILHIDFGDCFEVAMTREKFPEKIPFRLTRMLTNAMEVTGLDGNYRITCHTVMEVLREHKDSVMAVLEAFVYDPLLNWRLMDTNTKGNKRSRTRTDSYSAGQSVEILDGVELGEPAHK
T6 sequence (P48736 797-1080 limits assumed): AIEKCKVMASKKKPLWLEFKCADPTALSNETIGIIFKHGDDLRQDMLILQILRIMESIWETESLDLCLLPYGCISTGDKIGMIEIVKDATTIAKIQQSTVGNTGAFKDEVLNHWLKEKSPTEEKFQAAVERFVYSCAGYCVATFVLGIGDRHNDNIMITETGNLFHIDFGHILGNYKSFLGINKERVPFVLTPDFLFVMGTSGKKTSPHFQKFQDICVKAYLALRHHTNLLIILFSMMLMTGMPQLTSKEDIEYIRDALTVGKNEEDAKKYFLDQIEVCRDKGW

Compound: CC(=O)N1CCC(n2nc(-c3cc4cc(O)ccc4[nH]3)c3c(N)ncnc32)CC1
- IC50 [1]: 0.014 µM
- IC50 [2]: 5.75 µM
- IC50 [3]: 25 µM
- IC50 [4]: 9.8 µM
- IC50 [5]: 11.8 µM

Compound: CC(C)n1nc(-c2cccc(C(=O)NC3=NCCS3)c2)c2c(N)ncnc21 [PP30]
- inhibition of PKCα [6]: does not inhibit PKCα significantly
- insulin stimulated phosphorylation of Akt at S473 and T308 [7]: inhibit insulin stimulated phosphorylation of Akt at S473
- phosphorylation of 4EBP1 at T37/46 [8]: able to inhibit

Compound: CO[C@H]1C[C@@H]2CC[C@@H](C)[C@@](O)(O2)C(=O)C(=O)N2CCCC[C@H]2C(=O)O[C@H]([C@H](C)C[C@@H]2CC[C@@H](O)[C@H](OC)C2)CC(=O)[C@H](C)/C=C(\C)[C@@H](O)[C@@H](OC)C(=O)[C@H](C)C[C@H](C)/C=C/C=C/C=C/1C [rapamycin, reference compound]
- body weight [9]: maintained body weight

Compound: O=c1cc(N2CCOCC2)oc2c(-c3ccccc3)cccc12 [LY294002, reference compound]
- toxic effect of prolonged treatment [10]: diminishes electrical resistance and causes morphological changes

Compound: CC(C)n1nc(-c2cc3cccc(O)c3[nH]2)c2c(N)ncnc21
- IC50 [1]: 0.0007 µM
- IC50 [2]: 3.46 µM
- IC50 [3]: 3.58 µM
- IC50 [11]: 0.45 µM
- IC50 [4]: 0.33 µM
- IC50 [5]: 0.038 µM

Compound: COc1ccc2c(c1OC)N=C(NC(=O)c1cccnc1)N1CCN=C21 [PIK-90, reference compound]
- insulin stimulated phosphorylation of Akt at S473 and T308 [7]: inhibit the phosphorylation of both Akt sites equipotently
- phosphorylation of Akt T308 [12]: blocks phosphorylation of T308
- phosphorylation of Akt and its substrates [13]: completely inhibited
- phosphorylation of 4EBP1 at T37/46 [8]: does not reduce

Compound: CC(C)n1nc(-c2cc3ccc(O)cc3[nH]2)c2c(N)ncnc21
- IC50 [1]: 0.026 µM
- IC50 [2]: 0.279 µM
- IC50 [3]: 2.16 µM
- IC50 [11]: 0.115 µM
- IC50 [4]: 0.395 µM
- IC50 [5]: 1 µM

Compound: Cc1ccc(NC(=O)c2ccc(CN3CCN(C)CC3)cc2)cc1Nc1nccc(-c2cccnc2)n1 [imatinib]
- number of cycling leukemic blasts [14]: significantly reduced the number of cycling leukemic blasts
- apoptosis of leukemic blast cells [14]: induction of apoptosis in leukemic blast cells
- splenomegaly ([14]; oral lavage daily, FIG. 21): significant decrease in splenomegaly
- cap-dependent translation [15]: inhibit cap-dependent translation

Compound: Cc1ccccc1-n1c(Cn2cnc3c(N)ncnc32)nc2cccc(C)c2c1=O [IC87114]
- type of effect on cell viability ([16]; plateau at high concentrations, 48 hrs): primarily cytostatic

Compound: CC(C)n1nc(-c2cc3ccccc3[nH]2)c2c(N)ncnc21
- IC50 [1]: 0.079 µM
- IC50 [2]: 11.2 µM
- IC50 [5]: 2.06 µM

Compound: Oc1cccc(-c2nc(N3CCOCC3)c3oc4ncccc4c3n2)c1 [PI-103]
- effect on anti-proliferative effects of imatinib ([17]; 48 hrs MTS, FIG. 19): potentiate the anti-proliferative effects of imatinib
- combination index with imatinib ([17]; over a broad dose range, FIG. 20): more synergistic than rapamycin
- colony formation in combination with dasatinib [18]: stronger effect of dasatinib-PI-103 combination as compared to dasatinib-rapamycin combination
- number of cycling leukemic blasts [14]: significantly reduced the number of cycling leukemic blasts
- apoptosis of leukemic blast cells [14]: induction of apoptosis in leukemic blast cells

Compound: Cn1c(=O)n(-c2ccc(C(C)(C)C#N)cc2)c2c3cc(-c4cnc5ccccc5c4)ccc3ncc21 [BEZ235]
- IC50 ([16]; Mus musculus, stated as treatment concentration = IC50): ~0.005 µM
- synergy with imatinib (combination index) ([17]; over a broad dose range, FIG. 16): moderate to strong synergy
- colony forming activity in combination with imatinib [19]: potentiate the effects of a half maximal concentration of imatinib

Compound: COc1cccc2c1C(=O)c1c(O)c3c(c(O)c1C2=O)C[C@@](O)(C(C)=O)C[C@@H]3O[C@H]1C[C@H](N)[C@H](O)[C@H](C)O1 [daunorubicin]
- effective range, partial reduction of colony formation [20]: 3 to 30 nM

Compound: CC[C@]1(O)C[C@H]2CN(CCc3c([nH]c4ccccc34)[C@@](C(=O)OC)(c3cc4c(cc3OC)N(C=O)[C@H]3[C@@](O)(C(=O)OC)[C@H](OC(C)=O)[C@]5(CC)C=CCN6CC[C@]43[C@@H]65)C2)C1 [vincristine, reference compound]
- effective range, partial reduction of colony formation [21]: 0.1 to 1 µM
